Experimental data taken from patent US20250388593A1 (MITSUBISHI TANABE PHARMA CORPORATION, priority 2023, published 2025).

Target: CRBN truncate (318-426) (Homo sapiens (Human), UniProt Q96SW2)
Experiment: Measurement of molecular interactions using surface plasmon resonance (SPR), Biacore T200
Type: binding
Settings: 25° C., immobilized CRBN truncate, upper limit of measurement 200 μM
Outline: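 C-terminally Avi-tagged CRBN (318-426) captured on a streptavidin SA chip on a Biacore T200. Running buffer 10 mM HEPES pH 7.5, 150 mM NaCl, 1 mM TCEP, 0.005% Tween 20, 2% DMSO; 60 s contact, 120 s dissociation.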

Chain of CRBN truncate (318-426) (Q96SW2 318-426): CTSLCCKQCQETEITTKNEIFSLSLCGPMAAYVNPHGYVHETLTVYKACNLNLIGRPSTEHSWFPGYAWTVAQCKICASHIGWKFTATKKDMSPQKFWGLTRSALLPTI

Kd [µM]	Compound
< 50	Cc1sc2c(c1C)C(c1ccc(Cl)cc1)=N[C@@H](CC(=O)NCCCCCCCCCCC(=O)N1CCC(c3ccc(C45CCC(O4)C(=O)NC5=O)cc3)CC1)c1nnc(C)n1-2 (stereo in doubt) [Example 358, 2-[(9S)-7-(4-chlorophenyl)-4,5,13-trimethyl-3-thia-1,8,11,12-tetraazatricyclo[8.3.0.02,6]trideca-2(6),4,7,10,12-pentaen-9-yl]-N-[11-[4-[4-[(1R*,5R*)-2,4-dioxo-8-oxa-3-azabicyclo[3.2.1]octan-1-yl]phenyl]-1-piperidyl]-11-oxo-undecyl]acetamide]
< 50	CC(C)(C)OC(=O)CCCCCNc1ccc(C(=O)N2CCC3(CCCC(=O)NC3=O)C2)cc1 (stereo not drawn) [Example 300, tert-Butyl 6-[4-(6,8-dioxo-2,7-diazaspiro[4.6]undecane-2-carbonyl)anilino]hexanoate]
≥ 100	O=C1CCCC(c2cccc([N+](=O)[O-])c2)C(=O)N1 (stereo not drawn) [Example 62, 3-(3-Nitrophenyl) azepane-2,7-dione]
≥ 100	CC(C)(C)OC(=O)NCCCCCCCc1cn(C2CCCC(=O)NC2=O)nn1 (stereo not drawn) [Example 147, tert-Butyl N-[7-[1-(2,7-dioxoazepan-3-yl)triazol-4-yl]heptyl]carbamate]
≥ 100	COc1ccc2nn(C3CCCC(=O)NC3=O)nc2c1 (stereo not drawn) [Example 251, 3-(5-Methoxybenzotriazol-2-yl)azepane-2,7-dione]
≥ 100	O=C1CCCC(CNC(=O)c2ccccc2)C(=O)N1 (stereo not drawn) [Example 57, N-[(2,7-Dioxoazepan-3-yl)methyl]benzamide]
< 50	O=C1CCCC2(CCN(c3ccc([N+](=O)[O-])cn3)C2)C(=O)N1 (stereo not drawn) [Example 75, 2-(5-nitro-2-pyridyl)-2,7-diazaspiro[4.6]undecane-6,8-dione]
≥ 100	CC(C)(C)OC(=O)COc1cccc(C(=O)NC2CCCC(=O)NC2=O)c1F (stereo not drawn) [Example 67, tert-Butyl 2-[3-[(2,7-dioxoazepan-3-yl)carbamoyl]-2-fluorophenoxy]acetate]
50 to 100	CC(C)(C)OC(=O)c1cccc(N2CC3(CC(=O)N(C4CCC(=O)NC4=O)C3=O)C2)n1 (stereo not drawn) [Example 47, tert-Butyl 6-[6-(2,6-dioxopiperidin-3-yl)-5,7-dioxo-2,6-diazaspiro[3.4]octan-2-yl]pyridine-2-carboxylate]
≥ 100	Nc1nccc(N2CC3(CC(=O)N(C4CCC(=O)NC4=O)C3=O)C2)n1 (stereo not drawn) [Example 230, 2-(2-Aminopyrimidin-4-yl)-6-(2,6-dioxopiperidin-3-yl)-2,6-diazaspiro[3.4]octane-5,7-dione]
≥ 100	CC(C)(C)OC(=O)NCCCCCCc1ccccc1C(=O)N1CCC2(CCCC(=O)NC2=O)C1 (stereo not drawn) [Example 159, tert-ButylN-[6-[2-(6,8-dioxo-2,7-diazaspiro[4.6]undecane-2-carbonyl)phenyl]hexyl]carbamate]
≥ 100	COc1ccc2sc(N3CCC4(CCCC(=O)NC4=O)C3)nc2c1 (stereo not drawn) [Example 188, 2-(5-Methoxy-1,3-benzothiazol-2-yl)-2,7-diazaspiro[4.6]undecane-6,8-dione]
≥ 100	Cn1ncc2c(N3CCC4(CCCC(=O)NC4=O)C3)ncnc21 (stereo not drawn) [Example 39, 2-(1-methylpyrazolo[3,4-d]pyrimidin-4-yl)-2,7-diazaspiro[4.6]undecane-6,8-dione]
50 to 100	Cc1sc2c(c1C)C(c1ccc(Cl)cc1)=N[C@@H](CC(=O)NCCCCCCCCCCC(=O)N1CCC(c3cccc(NC45CCC(CC4)C(=O)NC5=O)c3)CC1)c1nnc(C)n1-2 [Example 355, 2-[(9S)-7-(4-chlorophenyl)-4,5,13-trimethyl-3-thia-1,8,11,12-tetraazatricyclo[8.3.0.02,6]trideca-2(6),4,7,10,12-pentaen-9-yl]-N-[11-[4-[3-[(2,4-dioxo-3-azabicyclo[3.2.2]nonan-1-yl)amino]phenyl]piperidin-1-yl]-11-oxoundecyl]acetamide]
≥ 100	O=C1CCCC2(CCN(c3nc4ncccc4s3)C2)C(=O)N1 (stereo not drawn) [Example 74, 2-([1,3]thiazolo[4,5-b]pyridin-2-yl)-2,7-diazaspiro[4.6]undecane-6,8-dione]
≥ 100	CC(=O)Nc1ccc(Cl)c(C2CCCC(=O)NC2=O)c1 (stereo not drawn) [Example 65, N-[4-Chloro-3-(2,7-dioxoazepan-3-yl)phenyl]acetamide]
≥ 100	Cc1sc2c(c1C)C(c1ccc(Cl)cc1)=N[C@@H](CC(=O)NCCCCCCCCNC(=O)c1ccc(N3CCC4(CCCC(=O)NC4=O)CC3=O)nc1)c1nnc(C)n1-2 (stereo partly drawn) [Example 335, N-[8-[[2-[(9S)-7-(4-chlorophenyl)-4,5,13-trimethyl-3-thia-1,8,11,12-tetraazatricyclo[8.3.0.02,6]trideca-2(6),4,7,10,12-pentaen-9-yl]acetyl]amino]octyl]-6-(4,7,9-trioxo-3,8-diazaspiro[5.6]dodecan-3-yl)pyridine-3-carboxamide]
< 50	Cc1sc2c(c1C)C(c1ccc(Cl)cc1)=N[C@@H](CC(=O)NCCCCCCCNc1ccc3nc(N4CCCC(=O)NC4=O)sc3c1)c1nnc(C)n1-2 [Example 312, 2-[(9S)-7-(4-chlorophenyl)-4,5,13-trimethyl-3-thia-1,8,11,12-tetraazatricyclo[8.3.0.02,6]trideca-2(6),4,7,10,12-pentaen-9-yl]-N-[7-[[2-(2,4-dioxo-1,3-diazepan-1-yl)-1,3-benzothiazol-6-yl]amino]heptyl]acetamide]

Kd [µM]	Compound
≥ 100	O=C(O)CCCCCCCc1nn(C2CCCC(=O)NC2=O)c2ccccc12 (stereo not drawn) [Example 209, 8-[1-(2,7-Dioxoazepan-3-yl)indazol-3-yl]octanoic acid]
≥ 100	Cn1c(=O)c(=O)n(C2CCCC(=O)NC2=O)c2ccccc21 (stereo not drawn) [Example 259, 1-(2,7-Dioxoazepan-3-yl)-4-methylquinoxaline-2,3-dione]
≥ 100	Cn1ccc2c(N3CC4(CC(=O)N(C5CCC(=O)NC5=O)C4=O)C3)ncnc21 (stereo not drawn) [Example 235, 6-(2,6-Dioxopiperidin-3-yl)-2-(7-methylpyrrolo[2,3-d]pyrimidin-4-yl)-2,6-diazaspiro[3.4]octane-5,7-dione]
< 50	CC(C)(C)OC(=O)N1CCC(c2cnc(N3CCC4(CCCC(=O)NC4=O)C3)nc2)CC1 (stereo not drawn) [Example 168-2, tert-Butyl 4-[2-(6,8-dioxo-2,7-diazaspiro [4.6]undecan-2-yl)pyrimidin-5-yl]piperidine-1-carboxylate]
< 50	Cc1sc2c(c1C)C(c1ccc(Cl)cc1)=N[C@@H](CC(=O)NCCCCCCCCCCC(=O)N1CCC(c3ccc(OC4CCCC(=O)NC4=O)cc3)CC1)c1nnc(C)n1-2 (stereo partly drawn) [Example 356]
< 50	COc1ccc2sc(N3CC4(CC(=O)N(C5CCC(=O)NC5=O)C4=O)C3)nc2c1 (stereo not drawn) [Example 239, 6-(2,6-Dioxopiperidin-3-yl)-2-(5-methoxy-1,3-benzothiazol-2-yl)-2,6-diazaspiro[3.4]octane-5,7-dione]
≥ 100	Nc1ccccc1OC1CCCC(=O)NC1=O (stereo not drawn) [Example 66-2, 3-(2-Aminophenoxy) azepane-2,7-dione]
< 50	Cc1sc2c(c1C)C(c1ccc(Cl)cc1)=N[C@@H](CC(=O)NCCCCCCCCNC(=O)CCc1ccc3c(=O)n(C4CCCC(=O)NC4=O)c(=O)n(C)c3c1)c1nnc(C)n1-2 (stereo partly drawn) [Example 344, N-[8-[[2-[(9S)-7-(4-chlorophenyl)-4,5,13-trimethyl-3-thia-1,8,11,12-tetraazatricyclo[8.3.0.02,6]trideca-2(6),4,7,10,12-pentaen-9-yl]acetyl]amino]octyl]-3-[3-(2,7-dioxoazepan-3-yl)-1-methyl-2,4-dioxo-quinazolin-7-yl]propanamide]
≥ 100	O=C1CCCC(c2ccc([N+](=O)[O-])cc2)C(=O)N1 (stereo not drawn) [Example 61, 3-(4-Nitrophenyl) azepane-2,7-dione]
≥ 100	CC(C)(C)OC(=O)c1ccc(C2(F)CCCC(=O)NC2=O)cc1 (stereo not drawn) [Example 243, tert-Butyl 4-(3-fluoro-2,7-dioxoazepan-3-yl) benzoate]
50 to 100	CC(C)(C)OC(=O)c1cnc(N2CCCC(=O)NC2=O)s1 [Example 115, tert-Butyl 2-(2,4-dioxo-1,3-diazepan-1-yl) thiazole-5-carboxylate]
≥ 100	CC(C)(C)OC(=O)c1cccc(N2CCC3(CCCC(=O)NC3=O)C2)n1 (stereo not drawn) [Example 92, tert-Butyl 6-(6,8-dioxo-2,7-diazaspiro [4.6]undecan-2-yl) pyridine-2-carboxylate]
≥ 100	CC(C)(C)OC(=O)c1ccc(N2CC3(CCCC(=O)NC3=O)CC2=O)nc1 (stereo not drawn) [Example 113, tert-Butyl 6-(3,6,8-trioxo-2,7-diazaspiro [4.6]undecan-2-yl) pyridine-3-carboxylate]
50 to 100	COC(=O)c1cccc(CN2CC3(CC(=O)N(C4CCC(=O)NC4=O)C3=O)C2)c1 (stereo not drawn) [Example 53, Methyl 3-[[6-(2,6-dioxopiperidin-3-yl)-5,7-dioxo-2,6-diazaspiro[3.4]octan-2-yl]methyl]benzoate]
< 50	CC(C)(C)OC(=O)NCCCCCCCn1c(=O)n(C2CCCC(=O)NC2=O)c2ccccc21 (stereo not drawn) [Example 198, tert-Butyl N-[7-[3-(2,7-dioxoazepan-3-yl)-2-oxobenzimidazol-1-yl]heptyl] carbamate]
≥ 100	CC(C)(C)OC(=O)N1CCc2c(ncnc2N2CC3(CC(=O)N(C4CCC(=O)NC4=O)C3=O)C2)C1 (stereo not drawn) [Example 242, tert-Butyl 4-[6-(2,6-dioxo-3-piperidyl)-5,7-dioxo-2,6-diazaspiro[3.4]octan-2-yl]-6,8-dihydro-5H-pyrido[3,4-d]pyrimidine-7-carboxylate]
< 50	Cn1c(=O)n(C2CCCC(=O)NC2=O)c2ccc(C3CCN(CC(=O)OC(C)(C)C)CC3)cc21 (stereo not drawn) [Example 219, tert-Butyl 2-[4-[1-(2,7-dioxoazepan-3-yl)-3-methyl-2-oxobenzimidazol-5-yl]piperidin-1-yl]acetate]
< 50	CC(C)(C)OC(=O)CCCCCCCn1c(=O)n(C2CCCC(=O)NC2=O)c2ccccc21 (stereo not drawn) [Example 195, tert-Butyl 8-[3-(2,7-dioxoazepan-3-yl)-2-oxobenzimidazol-1-yl]octanoate]
